One data set has as its target T1, human CaSR (Homo sapiens, UniProt P41180).
T1 construct: expressed in transfected cells
T1 sequence (P41180 20-1078): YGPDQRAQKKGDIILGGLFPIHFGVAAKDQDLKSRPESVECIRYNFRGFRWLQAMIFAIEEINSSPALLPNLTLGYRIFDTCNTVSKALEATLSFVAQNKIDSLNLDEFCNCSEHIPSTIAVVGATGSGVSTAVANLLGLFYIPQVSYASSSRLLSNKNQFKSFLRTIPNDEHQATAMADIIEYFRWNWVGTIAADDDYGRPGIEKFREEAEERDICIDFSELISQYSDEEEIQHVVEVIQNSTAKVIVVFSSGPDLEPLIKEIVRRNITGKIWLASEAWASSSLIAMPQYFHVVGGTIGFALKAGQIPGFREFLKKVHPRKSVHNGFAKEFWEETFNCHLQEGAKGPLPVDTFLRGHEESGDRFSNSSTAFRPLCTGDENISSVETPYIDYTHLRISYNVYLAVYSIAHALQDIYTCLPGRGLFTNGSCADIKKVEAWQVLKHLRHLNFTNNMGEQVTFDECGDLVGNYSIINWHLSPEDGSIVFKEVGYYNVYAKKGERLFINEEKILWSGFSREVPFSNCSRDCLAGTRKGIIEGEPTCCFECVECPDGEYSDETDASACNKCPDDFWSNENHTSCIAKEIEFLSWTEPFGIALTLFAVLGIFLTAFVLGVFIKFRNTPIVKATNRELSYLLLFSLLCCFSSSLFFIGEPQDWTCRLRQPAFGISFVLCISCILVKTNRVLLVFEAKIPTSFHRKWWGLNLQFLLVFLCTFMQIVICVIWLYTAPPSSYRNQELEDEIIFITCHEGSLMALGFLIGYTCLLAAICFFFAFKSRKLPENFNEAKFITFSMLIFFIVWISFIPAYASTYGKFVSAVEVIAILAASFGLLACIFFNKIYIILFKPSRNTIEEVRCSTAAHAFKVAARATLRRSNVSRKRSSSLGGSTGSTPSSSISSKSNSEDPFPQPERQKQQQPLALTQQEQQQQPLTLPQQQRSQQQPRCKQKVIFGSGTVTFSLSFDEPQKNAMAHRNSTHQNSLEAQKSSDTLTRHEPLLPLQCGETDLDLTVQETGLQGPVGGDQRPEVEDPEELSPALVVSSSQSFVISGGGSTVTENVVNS
The experiment in a line: In vitro CaSR conformational (allosteric) activation, intracellular Ca2+ change in hCaSR-CHO cells (Fluo-4 NW, FLIPR). Type of data set: cell-based. As to conditions: change in intracellular Ca2+ fluorescence intensity. As to the method: The CaSR is a member of family C of G protein-coupled receptors (GPCR). Upon activation by extracellular Ca^2+ or specific compounds, CaSR triggers an increase in intracellular Ca^2+ concentration. To evaluate the effect of compounds on the allosteric activation of CaSR, a CHO cell line stably transfected with human CaSR (hCaSR-CHO) was utilized. Changes in intracellular Ca^2+ concentration were measured as a key indicator to assess the conformational activation of CaSR.
• 1. Preparation Before Plate Spreading: Twelve hours prior to cell spreading, a 384-well cell culture plate was coated with 0.1 mg/mL polylysine. • 2. Cell Spreading: Digested hCaSR-CHO cells were resuspended in complete medium, counted using a cell counter, and adjusted to a density of 5 × 10^5 cells/mL. A volume of 25 µL of cell suspension was inoculated into each well. After inoculation, the cells were incubated at 37 °C in a 5% CO2 incubator for 18 h. • 3. Preparation of Compound Test Solution: The test compounds were diluted to the required concentrations (10 µM, 2 µM, 400 nM, 80 nM, 16 nM, 3.2 nM, and 0.64 nM) and added to a 384-well spiked plate. Since the cell culture plate already contained 25 µL of Fluo-4 NW assay reagent and the instrument was set to deliver 20 µL of the system, the compound concentrations in the spiked plate were 2.25 times the actual assay concentrations. For example, […]. • 4. Preparation of Assay Reagents: According to the instructions of the Fluo-4 NW Calcium Assay Kit (Thermo, F36206), 1 mL of assay buffer was added to Component B to prepare a 250 mM probenecid solution. 100 µL of the probenecid solution was added to 10 mL of assay buffer and mixed thoroughly. Component A was added to the mixture to prepare a 1X dye loading solution. • 5. Fluorescent Dye Addition: The complete culture medium was discarded, and 25 µL of the 1X dye loading solution was added to the 384-well plate using a Multidrop automatic dispenser. The plate was incubated at 37 °C for 30 min in the dark, then transferred to room temperature for an additional 30 min. The plate was transferred to the FLIPER Tetra instrument (Molecular Devices). • 6. Data Acquisition: After adding 20 µL of the compound test solution, the excitation wavelength was set to 470-495 nm, and the emission was detected at 515-575 nm. The instrument's quality control board was used to ensure no errors before initiating detection. The detection duration was 660 seconds, and the raw data were exported at the end of the reading. • 7. Data Processing: The change in fluorescence intensity, representing intracellular calcium signals, was calculated by subtracting the minimum fluorescence value (average of 14-21 seconds) from the maximum fluorescence value (average of 40-80 seconds) after compound addition. Using GraphPad Prism 8.0, the EC50 values of individual compounds were determined by plotting the compound concentration on the x-axis and the change in fluorescence intensity on the y-axis.

Data set [1] can be described thus: Rat liver microsome stability test. It is filed as in vitro ADME. The note with it: rat liver microsomes, PBS pH 7.4, 37 °C, maximum incubation time 60 minutes. As to the method:
Rat liver microsomes at a defined concentration, testosterone (positive control), tolbutamide (internal standard), the test compounds, and PBS (pH 7.4) were incubated at 37 °C. The reaction was quenched with methanol at 0, 5, 10, 20, 30, and 60 min, respectively. The samples were pretreated and analyzed using LC-MS. Data processing involved plotting the ratio of the peak area of the test compound to that of the internal standard (y-axis) against time (x-axis). The half-life (t1/2) was calculated from the data. Table 3. Stability data of compounds in rat liver microsomes.
A general note: Liver microsomes are vesicles of endoplasmic reticulum, rich in cytochrome P450 enzymes.

Data set [2] deals with parathyroid hormone (PTH). The experiment in a line: In vivo inhibition of blood PTH concentration in five-sixths nephrectomy hyperparathyroidism model rats (ELISA). As to conditions: PTH reduction at 1 hour post-administration compared with baseline PTH concentration at 0 hour; single dose by oral gavage; male SD rats, five-sixths nephrectomy plus special diet. An excerpt: Male SD rat models of hyperparathyroidism were constructed by five-sixths nephrectomy plus a special diet. Blood parathyroid hormone (PTH) level was used as the endpoint. ELISA was applied to determine the changes in plasma PTH concentration following compound treatment, thereby assessing the in vivo activity of the compound.
• 1. Model Construction: Specific pathogen-free (SPF)-grade male SD rats aged 7-8 weeks were used. The rats were acclimatized with normal feed for 1 week. Two-thirds of the left kidney was removed, and the rats were allowed to recover with normal feed for 1 week. Subsequently, the right kidney was removed, and the rats were allowed to recover with normal feed for an additional week. The rats were then fed a special diet (0.5% calcium and 1.2% total phosphorus) for 2 weeks. • 2. Detection and Grouping: Approximately 300 µL of blood was collected from the tail vein into a coagulation-promoting tube, left at room temperature for 30 minutes, and centrifuged at 12,000 rpm for 3 minutes to obtain serum samples. The concentration of intact PTH (1-84) in the serum was detected using the MicroVue Intact PTH EIA-96 Test (Quidel, catalog No. 60-2500). The rats were grouped based on their PTH concentration levels, ensuring that the mean PTH concentration in each group was approximately the same. • 3. Administration and Activity Testing: A single dose of the compound was administered by oral gavage. Blood samples were collected before and after administration, and serum was obtained using the method described in step 2. PTH levels were measured using ELISA.
In general terms: An ELISA detects its analyte on a solid surface through an enzyme-linked reagent.

A short description of data set [3]: Pharmacokinetic study in SD rats. Type of data set: in vivo. As to conditions: Sprague-Dawley, rat, plasma, male SD rats, single dose via oral gavage; for bioavailability: relative to Evocalcet (100). As to the method: Animal Information: Male Sprague-Dawley (SD) rats, aged 7-8 weeks, were used. Each group consisted of 3-5 rats.
Dosing Information: The rats were fasted for more than 12 hours prior to administration. A single dose was administered via oral gavage.
Blood Sampling Time Points: Blood samples were collected from the tail vein before administration and at 0.25, 0.5, 1, 2, 4, 6, 8, and 24 hours post-administration. A volume of 100 µL of blood was collected at each time point.
Sample Processing and Storage: The blood samples were transferred into 1.5 mL microcentrifuge tubes, with 50 µL per tube (two tubes per sample). Centrifugation was completed within 2 hours. Whole blood samples were kept on ice prior to centrifugation. Centrifugation was performed at 4000 rpm, 2-8°C, for 10 minutes. After collecting the supernatant, it was stored at -80°C or below if not analyzed immediately.
Column: An InfinityLab Poroshell 120 SB-C18 column (2.1 × 100 mm, 2.7 µm) was used. Column Temperature: The temperature was maintained at 30°C. Flow Rate: The flow rate was set at 0.3 mL/min. Run Time: The total run time was 9.5 minutes. Post-run Time: A post-run time of 2 minutes was applied. Injection Volume: An injection volume of 2 µL was used. Mobile Phase: A mixture of methanol and 0.1% formic acid was employed as the mobile phase. Gradient Elution: Gradient elution was performed according to the table below.
Blood Sample Processing: 50 µL of plasma sample was aliquoted, and 25 µL of internal standard solution was added. The mixture was vortexed for 30 seconds. Then, 175 µL of methanol was added to precipitate proteins, and the mixture was vortexed again. The samples were centrifuged at 12,000 rpm for 10 minutes. Subsequently, 100 µL of the supernatant was collected and mixed with 300 µL of water. The final supernatant was injected for analysis.

`COc1cc(N2CC[C@H](N[C@H](C)c3cccc4ccccc34)C2)ccc1CC(=O)O` [Compound 7, 2-(2-methoxy-4-((S)-3-(((R)-1-(naphthalen-1-yl)ethyl)amino)pyrrolidin-1-yl)phenyl)acetic acid]: the EC50 (as a rule, the concentration that produces a half-maximal response) on human CaSR was determined as 55.5 nM.
Same read-out and setting: the result for `COc1cc(CC(=O)O)ccc1N1CC[C@H](N[C@H](C)c2cccc3ccccc23)C1` [Compound 6, 2-(3-methoxy-4-((S)-3-(((R)-1-(naphthalen-1-yl)ethyl)amino)pyrrolidin-1-yl)phenyl)acetic acid] reads 42.5 nM.
Turning to `C[C@@H](N[C@H]1CCN(c2cc(F)c(CC(=O)O)c(F)c2)C1)c1cccc2ccccc12` [Compound 5, 2-(2,6-difluoro-4-((S)-3-(((R)-1-(naphthalen-1-yl)ethyl)amino)pyrrolidin-1-yl)phenyl)acetic acid], in data set [1], the half-life (as a rule, the time in which the quantity being followed falls by half) is > 1 h. The “The reduction efficiency (%)” value in data set [2] is recorded as 81%. Moreover, the EC50 at human CaSR was 39.8 nM.
Take `C[C@@H](N[C@H]1CCN(c2ccc(CC(=O)O)cc2)C1)c1cccc2ccccc12` [Evocalcet, reference compound]: the half-life in data set [1] is > 1 h. In addition, in data set [3], the bioavailability was 100%, the AUC(0-inf) (usually the area under the concentration-time curve extrapolated to infinity) worked out at 25400 ± 7360 ng·h/mL, the concentration peaked (Cmax) at 2520 ± 212 ng/mL and the Tmax (commonly the time from dosing to the highest level) was determined as 1.15 ± 1.6 h. In data set [3], this compound showed a half-life of 4.83 ± 0.39 h. Further, the EC50 at human CaSR turned out to be 67.6 nM.
`C[C@@H](N[C@H]1CCN(c2ccc(CC(=O)O)c(F)c2)C1)c1cccc2ccccc12` [Compound 1, 2-(2-fluoro-4-((S)-3-(((R)-1-(naphthalen-1-yl)ethyl)amino)pyrrolidin-1-yl)phenyl)acetic acid] registered an EC50 at human CaSR of 39.7 nM.
The compound `Cc1cc(N2CC[C@H](N[C@H](C)c3cccc4ccccc34)C2)ccc1CC(=O)O` [Compound 4, 2-(2-methyl-4-((S)-3-(((R)-1-(naphthalen-1-yl)ethyl)amino)pyrrolidin-1-yl)phenyl)acetic acid] registered an EC50 on human CaSR of 52 nM.
Consider `Cc1cc(CC(=O)O)ccc1N1CC[C@H](N[C@H](C)c2cccc3ccccc23)C1` [Compound 3, 2-(3-methyl-4-((S)-3-(((R)-1-(naphthalen-1-yl)ethyl)amino)pyrrolidin-1-yl)phenyl)acetic acid], for which, in data set [1], the half-life was > 1 h. Moreover, in data set [3], the bioavailability was 144%, the AUC(0-inf) was 36600 ± 1970 ng·h/mL, the concentration peaked (Cmax) at 3770 ± 584 ng/mL and the Tmax came out at 0.55 ± 0.27 h. In data set [3], the half-life was 5.17 ± 0.38 h. The “The reduction efficiency (%)” value in data set [2] stood at 93%. Moreover, at human CaSR, the EC50 came out at 20.7 nM.
For the compound `C[C@@H](N[C@H]1CCN(c2ccc(CC(=O)O)cc2F)C1)c1cccc2ccccc12` [Compound 2, 2-(3-fluoro-4-((S)-3-(((R)-1-(naphthalen-1-yl)ethyl)amino)pyrrolidin-1-yl)phenyl)acetic acid], in data set [1], the half-life was > 1 h. Further, in data set [3], the bioavailability was 136%, the AUC(0-inf) was 34700 ± 2710 ng·h/mL, the concentration peaked (Cmax) at 3550 ± 283 ng/mL and the Tmax amounted to 0.65 ± 0.34 h. Moreover, the half-life in data set [3] is 5.91 ± 0.21 h. Further, the “The reduction efficiency (%)” value in data set [2] amounted to 91%. At human CaSR, the EC50 came out at 27.1 nM.

The record behind these values is EP4800004A1, “ARYLALKYLAMINE COMPOUND, AND PREPARATION METHOD THEREFOR AND USE THEREOF” (Renhe Yikang Group Co., Ltd., priority 2024, dated 2025).
